Drawing on the RepoRT retention time repository, this text covers LC retention time for 82 compounds.

The nature of this data set: Agilent ZORBAX 300 SB-C18, 150 × 1 mm, 3.5 µm; A: water + 0.01% heptafluorobutyric acid; B: acetonitrile + 0.01% heptafluorobutyric acid; gradient (min/%B) 0/0 100/90. The conditions noted are these: stereoisomer not certain.
For the compound `CN1C2CC(OC(=O)C(CO)c3ccccc3)CC1C1OC12` (configuration not stated), the LC retention time was found to be 8.47 min.
Take `Cn1ccc(C(=O)O)cc1=O`: the LC retention time stood at 5.27 min.
As for `S=C(Nc1ccccn1)NC1CCCCC1`, the LC retention time came out at 10.7 min.
In the case of `CCCCOc1ccccc1N`, the LC retention time is 10.8 min.
For the compound `CC(C)(C)c1ccc(C(=O)NN=Cc2c[nH]c3ccccc23)cc1`, the LC retention time was found to be 14.2 min.
The same measure for `C[N+]1(C)CCCCC1`: 5.95 min; for `COC(=O)C(c1ccccc1)C1CCCCN1` (configuration not stated): 9.49 min; for `Cn1cnnc1-c1ccncc1`: 6.08 min.
For the compound `CC(=O)CC(C)(C)N`, the LC retention time stood at 6.26 min.
For `C#CCN(CC)CC#C`, the LC retention time turned out to be 6.73 min.
With `CCN(CC)CCOC(=O)C(c1ccccc1)C1CCCCC1` (configuration not stated), the LC retention time turned out to be 13 min.
`CN(C)C(=O)c1ccc(N)cc1`: the LC retention time stood at 6.87 min.
With `CNC(=S)NNC(=O)Cc1cccc2ccccc12`, the LC retention time came out at 10.3 min.
`c1nc[nH]n1`: the LC retention time is 1.93 min.
With `CC(C)c1cc[nH]c1-c1ccccc1`, the LC retention time is 16.3 min.
In the case of `c1cncc(-c2cccs2)c1`, the LC retention time worked out at 9.08 min.
Take `O=C1C(=Cc2ccoc2)CCCC1=Cc1ccoc1`: the LC retention time was determined as 15.7 min.
`COc1cccc2c1NC(C)(C)CC2C` (configuration not stated): the LC retention time is 12.3 min.
For `Cc1ccc(-c2nc(-c3c[nH]c4ccccc34)[nH]c2-c2ccc(C)cc2)cc1`, the LC retention time was determined as 13.7 min.
In the case of `Cn1c(=O)n(C)c(=O)n(CC(=O)N2CCCCC2)c1=O`, the LC retention time was 8.88 min.
`COc1ccc(OC)c(C(=O)C=Cc2ccc(OC)c(OC)c2OC)c1`: the LC retention time was 15.2 min.
Take `Nc1ccccc1C(=O)NN=C1CCCC1`: the LC retention time is 10.1 min.
Under `CN(CCNc1ccccc1)C(N)=O` stands 7.86 min; under `CCCOC(=O)c1ccc(NC(=O)c2ccc(C)cc2)cc1`, 16.2 min.
In the case of `CC(=O)NNC(=O)c1ccncc1`, the LC retention time was 3.54 min.
For the compound `COCCc1ccc(OCC(O)CNC(C)C)cc1` (configuration not stated), the LC retention time was 9.27 min.
Under `COc1cc(C2ON=C(CN3CCOCC3)C2C)c(OC)c2c1OCO2` (configuration not stated) stands 9.6 min.
As to `CCCCc1ccc(NC=CC(=O)c2ccc(C)cc2)cc1`, the LC retention time turned out to be 21.5 min.
On to `CCCCCCCCCCC(N)=O`, for which the LC retention time stood at 15.3 min.
Under `Nc1ccc(C(=O)NC=C2CCCC2)cc1` stands 7.87 min; under `c1ccc(SCSc2ccccn2)nc1`, 13.7 min.
Consider `Nc1ncnc(N)n1`, for which the LC retention time was determined as 7.16 min.
Consider `COC(=O)CCN1CCCCC1`, for which the LC retention time was determined as 7.02 min.
As for `CN(C)c1cccc(C(=O)O)c1`, the LC retention time is 8.69 min.
Regarding `CC(CCc1ccc(O)cc1)NCCc1ccc(O)c(O)c1` (configuration not stated), the LC retention time was 8.94 min.
For `COC(=O)c1c[nH]c2ccccc12`, the LC retention time turned out to be 10.9 min.
For the compound `CC(C(=O)c1ccccc1)[n+]1ccccc1` (configuration not stated), the LC retention time is 8.43 min.
The same measure for `Nc1nc2c([nH]c(=O)n2C2CC(O)C(CO)O2)c(=O)[nH]1` (configuration not stated): 6.05 min; for `CN(C)c1ccc(C=NNC(N)=S)cc1`: 9.84 min.
With `Cc1cc(C)nc(Nc2n[nH]c(C)n2)n1`, the LC retention time was 8.05 min.
On to `C[n+]1cccc(C(N)=O)c1`, for which the LC retention time was 3.76 min.
The same measure for `c1ccc(CNc2ccccn2)cc1`: 8.6 min; for `C=CC1CN2CCC1CC2C(O)c1ccnc2ccc(OC)cc12` (configuration not stated): 9.1 min; for `Cc1cc(N)c(N)cc1C`: 7.98 min.
The same measure for `CCCNC(C)C(=O)Nc1ccccc1C` (configuration not stated): 9.17 min.
As for `Cc1[nH]c2ccccc2c1C=NN=Cc1c(C)[nH]c2ccccc12`, the LC retention time stood at 12 min.
`CNC(=S)N1CCCCC1`: the LC retention time stood at 8.86 min.
With `CCNC(=O)c1ccc(CN2CCc3ccccc3C2)cc1`, the LC retention time came out at 8.52 min.
For `CC1C(=O)CCN(C(C)(C)C)C1C` (configuration not stated), the LC retention time came out at 8.44 min.
For `CCC(c1ccc(C)cc1)N(NC(=O)C(O)(c1ccc(C)cc1)c1ccc(C)cc1)C(=O)c1ccccc1` (configuration not stated), the LC retention time was determined as 18.3 min.
Consider `CNCCCN1c2ccccc2CCc2ccccc21`, for which the LC retention time amounted to 11.5 min.
The same measure for `Cc1cccc(C)n1`: 6.46 min.
Under `NC(=O)c1ccccc1NC(=O)CN1CCCC1` stands 7.36 min; under `O=C(O)c1c2ccccc2nc2ccccc12`, 5.86 min.
Under `O=C1c2ccccc2-c2nc3ccccc3cc21` stands 14.2 min.
As to `Nc1ccc[nH]c1=O`, the LC retention time was found to be 2.98 min.
The same measure for `Cc1cc(C)nc(NC(N)=NCCC(C)C)n1`: 10.3 min; for `Cn1c(=O)c2c(-c3ccccc3)n(Cc3ccccc3)cc2n(C)c1=O`: 14.3 min.
In the case of `CC(C)OC(C)n1cccc1-c1ccccc1` (configuration not stated), the LC retention time was found to be 17.7 min.
With `c1cc2c(cc1NC1=NCCCCC1)OCCO2`, the LC retention time is 9.12 min.
The same measure for `NC(CO)(CO)CO`: 2.86 min.
Under `CCCOC(C)n1cccc1-c1ccccc1` (configuration not stated) stands 18 min; under `Cc1cc(=O)n(C)c(=O)n1CCCN1CCCC1`, 7.09 min.
As for `CC(=O)Nc1ccc(C(=O)NCCc2c[nH]c3ccc(C)cc23)cc1`, the LC retention time came out at 11.1 min.
Take `Nc1ccc(NC(=O)c2cccc(C(=O)Nc3ccc(N)cc3)c2)cc1`: the LC retention time stood at 7.98 min.
Turning to `CC1(C)CC(=O)C=C(NCC2NCCc3ccccc32)C1` (configuration not stated), the LC retention time worked out at 8.52 min.
As for `CN(C)CCN(Cc1ccccc1)c1ccccn1`, the LC retention time worked out at 10.1 min.
With `CN(C)CCCNC(=O)Nc1cccc2ccccc12`, the LC retention time was determined as 8.85 min.
Consider `CCNC(=S)Nc1ccccc1N`, for which the LC retention time amounted to 8.14 min.
For `O=C(O)c1cc(N2CCCC2=O)cc(N2CCCC2=O)c1`, the LC retention time was determined as 8.34 min.
Consider `CCCCN(CCCC)C(=O)c1ccc(OC(C)=O)cc1`, for which the LC retention time stood at 15.3 min.
Under `Cc1ccc(C(=O)NCc2ccco2)cc1` stands 11.7 min.
As for `COC(=O)Cn1ncccc1=O`, the LC retention time amounted to 6.64 min.
For the compound `c1ccc(Cc2nn[nH]n2)cc1`, the LC retention time worked out at 8.45 min.
`NC1=NCCS1`: the LC retention time came to 5.28 min.
Regarding `Cc1ccc(C=NNC(=O)C(=O)NC(C)C)o1`, the LC retention time is 9.79 min.
`Cc1cc(C=NNC(N)=S)c(C)n1-c1ccccc1`: the LC retention time is 12.7 min.
For `CCOC(=O)c1ccc(Nc2c(N)c(=O)oc3ccccc23)cc1`, the LC retention time turned out to be 14 min.
Take `Cc1ncc(C[n+]2csc(CCOP(=O)(O)OP(=O)(O)O)c2C)c(N)n1`: the LC retention time turned out to be 1.62 min.
In the case of `O=C(O)CCCCC1SCC2NC(=O)NC21` (configuration not stated), the LC retention time is 7.67 min.
On to `OC12CC(Cc3cccnc31)c1ccccc12` (configuration not stated), for which the LC retention time turned out to be 8.39 min.
`CC(NCCc1ccc(O)cc1)C(O)c1ccc(O)cc1` (configuration not stated): the LC retention time amounted to 8.48 min.
